Among the data in PubChem BioAssay (NCI) are TGI and GI50 values, retold here.

Several values for one entry are separate records, joined by “and”; a condition that tells them apart may be missing. Identical values can stand only once.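 Growth conditions: 96-well plates. Treatment: test compound, 48 hours, 5 concentrations. Analysis: linear interpolation between bracketing concentrations; unreached endpoints set to highest concentration. GI50 marks 50% less growth. TGI denotes the concentration required for complete inhibition of growth.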 Where only a bound is given, the exact number is not on record here.

Common to all, as to assay: NCI anticancer screen, dose series, 48 h
In test [1] the test system is LOX IMVI melanoma.
The test system of test [2] is M14 melanoma.
Test [3] has as its system CAKI-1 renal.
In test [4] the test system is SN12C renal.
Test [5] concerns SNB-19 CNS.
For test [6], the system named is UACC-257 melanoma.
Test [7] deals with SK-MEL-28 melanoma.
For test [8], the system named is HT29 colon.
Test [9] deals with OVCAR-3 ovarian.
The test system of test [10] is ACHN renal.

Regarding `O=C(O)c1ccc(NC(c2ccccc2)c2ccc3cccnc3c2O)cc1` (centres undefined), the TGI in test [1] is over 57.6 µM; in [2] it was over 85.5 µM; in test [3], 59.2 µM; in test [4], over 54.1 µM; in test [5], over 100 µM; in test [6], 46.2 µM. Besides, the TGI is over 100 µM in [7], over 100 µM in test [8], 14.2 µM in test [9] and over 100 µM in test [10].
As to `O=C1CC(O)c2c1csc2Br` (centres undefined), the TGI in [1] was 36.1 µM; in [2], 35.5 µM; in [3], over 100 µM; in test [4], 87.9 µM; in [5], over 100 µM; in test [6] it was 31.4 µM. Moreover, the TGI in [7] is 45.1 µM; in test [8] it was over 100 µM; in test [9], 64.4 µM; in [10], 45.4 µM.
`Cc1c(Cl)ccc2c(=O)c3cccc(CC(=O)O)c3oc12`: the TGI in [1], in test [2], in [3], in [4], in test [5] and in test [6] was over 100 µM throughout. The TGI in test [7], in test [8], in test [9] and in test [10] was over 100 µM each time.
In the case of `Cc1ccccc1C(C#N)C(=O)C(=O)Nc1nc([N+](=O)[O-])cs1` (centres undefined), the TGI in [1], in test [2], in test [3], in test [4], in test [5] and in test [6] was over 100 µM throughout. The TGI in test [7], in test [8], in test [9] and in test [10] was over 100 µM throughout.
For the compound `COC(=O)C1=C(C(=O)OC)C2OC1C1C2C2(C)C(C)=C(C)C1(C)S2=O` (centres undefined), the TGI in [1] was over 100 µM; in test [2], 27.7 µM; in [3], 27 µM; in [4] it was 31.1 µM; in [5], 66.1 µM; in test [6], 29.6 µM. Also, the TGI in test [7] was 33.8 µM; in test [8], over 49.9 µM; in test [9], 25.5 µM; in [10] it was 12.9 µM.
For `CCSc1nnc(CSc2nc(-c3ccccc3)c(-c3ccccc3)[nH]2)n1-c1ccccc1`, the TGI was 43.8 µM in test [1]; 34.9 µM in test [2]; 63.7 µM in [3]; 29.7 µM in test [4]; 34.2 µM in test [5]; 33.6 µM in test [6]. Further, the TGI in test [7] worked out at 37 µM; in test [8] it was 35.4 µM; in test [9], 35.2 µM; in test [10], 33.4 µM.
Consider `COc1ccc(N2C(=O)C3c4[nH]c5ccc([N+](=O)[O-])cc5c4C4CCC(C(C)(C)C)CC4C3C2=O)cc1` (centres undefined), for which the TGI is over 100 µM in [1]; over 100 µM in test [2]; over 100 µM in [3]; 76.9 µM in test [4]; over 100 µM in test [5]; over 100 µM in [6]. For the same compound, the TGI in [7] was over 100 µM; in test [8], 20.1 µM; in test [9], 49.5 µM; in test [10] it was 63.6 µM.
For `COc1cc2oc(-c3ccc(O)cc3)c(OC3OC(C)C(O)C(O)C3O)c(=O)c2c(O)c1OC` (centres undefined), the TGI in test [1], in test [2], in [3], in [4], in [5] and in test [6] was over 100 µM in each case. In addition, the TGI in test [7], in test [8], in test [9] and in test [10] was over 100 µM each time.
As for `COC1O[C@H]2CCN(C(=O)OCc3ccccc3)[C@H]2[C@H]1OCc1ccccc1` (some centres undefined), the TGI in [1], in test [2], in test [3], in test [4], in test [5] and in test [6] was over 100 µM in each case. In addition, the TGI in test [7], in test [8], in [9] and in test [10] was over 100 µM each time.
For the compound `O=c1[nH]cnc2c(C3OC(CO)C(O)C3O)c[nH]c12` (centres undefined), the TGI in test [1], in test [2], in [3], in [4], in [5] and in [6] was over 100 µM throughout. In addition, the TGI in test [7], in [8], in test [9] and in [10] was over 100 µM throughout.
Regarding `N#Cc1c(N)[nH]c(=S)c(C#N)c1-c1cccc(Cl)c1`, the TGI was over 100 µM in test [1]; over 100 µM in test [2]; over 100 µM in [3]; 56.3 µM in [4]; over 100 µM in test [5]; over 100 µM in [6]. For the same compound, the TGI in test [7], in test [8], in [9] and in test [10] was over 100 µM in each case.
`c1cc(-c2cnc(-c3ccc4c(c3)CCCO4)o2)ccn1`: the TGI in [1] was found to be 29.7 µM; in [2], 33 µM; in [3], 41.5 µM; in [4], 46.4 µM; in test [5], 40.9 µM; in [6], 28.8 µM. Moreover, the TGI in test [7] came out at 32.2 µM; in test [8] it was 41.3 µM; in [9], 33.5 µM; in [10], 37.9 µM.
Consider `CCOC(=O)C(OCC1CC=CCC1)Sc1ccccc1` (centres undefined), for which the TGI in test [1], in test [2], in [3], in test [4], in test [5] and in test [6] was over 100 µM each time. Also, the TGI in [7], in test [8], in test [9] and in [10] was over 100 µM throughout.
Turning to `O=c1[nH]c2nc3ccccc3c(=O)n2/c1=C/c1ccc(O)cc1`, the TGI in [1] is over 100 µM; in [2], over 100 µM; in test [3] it was over 100 µM; in [4] it was over 100 µM; in test [5], 51.3 µM; in test [6], over 100 µM. In addition, the TGI in test [7] is over 100 µM; in [8], 72 µM; in test [9], over 100 µM; in test [10] it was over 100 µM.
As for `CC(C)CC(N)C(=O)OCN1C(=O)C2C3C=CC(C2C1=O)C1C2C(=O)N(COC(=O)C(N)CC(C)C)C(=O)C2C31` (centres undefined), the TGI in test [1] is over 58.1 µM; in test [2], over 100 µM; in test [3], over 100 µM; in test [4], over 100 µM; in [5] it was over 100 µM; in [6], over 100 µM. Further, the TGI in test [7], in [8], in test [9] and in test [10] was over 100 µM each time.
In the case of `CCCCN(CC)c1nc(C)nc2c1c(C)c(C)n2-c1c(C)cc(C)cc1C`, the TGI is 30.4 µM in [1]; 35.6 µM in test [2]; 30.2 µM in test [3]; 40.9 µM in test [4]; 33.3 µM in test [5]; 26.9 µM in [6]. For the same compound, the TGI in [7] amounted to 31.5 µM; in test [8], 22.6 µM; in [9], 26.6 µM; in test [10] it was 28.1 µM.
On to `O=C1CC(C(O)CO)CC(=O)N1` (centres undefined), for which the TGI in [1], in test [2], in test [3], in [4], in test [5] and in [6] was over 100 µM in each case. Also, the TGI in test [7], in test [8], in [9] and in test [10] was over 100 µM throughout.
For the compound `COc1ccc(-c2c(C#N)c(S)n(C3OC(COC(C)=O)C(OC(C)=O)C(OC(C)=O)C3OC(C)=O)c(=O)c2C#N)cc1` (centres undefined), the TGI is over 100 µM in [1]; over 100 µM in test [2]; 56.4 µM and 98.8 µM in test [3]; over 100 µM in test [4]; over 100 µM in test [5]; > 100 µM and 42 µM in test [6]. Also, the TGI in test [7] was > 100 µM and 37.3 µM; in [8], over 100 µM; in test [9], > 100 µM and 61.6 µM; in [10] it was over 100 µM. Besides, the GI50 is 34.1 µM and 75.3 µM in [5]; > 100 µM and 19.8 µM in test [6]; > 100 µM and 20.8 µM in test [7]; > 100 µM and 23.8 µM in test [9].
As to `COC(=O)C(C#N)=C1c2ccccc2Oc2ccccc21`, the TGI in test [1], in test [2], in test [3], in test [4], in [5] and in test [6] was over 100 µM each time. Also, the TGI in test [7] is over 100 µM; in [8] it was over 100 µM; in [9], 73.1 µM; in [10] it was over 100 µM.
`CC(C)=CCN1CC(C)C(=O)Nc2cc(Cl)ccc21` (centres undefined): the TGI was 32.4 µM in test [1]; 43.3 µM in test [2]; 55.5 µM in [3]; 33 µM in [4]; over 100 µM in test [5]; 36 µM in test [6]. For the same compound, the TGI in test [7] was over 100 µM; in [8], 38.3 µM; in [9], 32.9 µM; in test [10], 67.5 µM.
For `COc1ccc(-c2c(C#N)c(N)n(C3OC(CO)C(O)C(O)C3O)c(=S)c2C#N)cc1` (centres undefined), the TGI in [1], in [2], in test [3], in test [4], in [5] and in test [6] was over 100 µM throughout. The TGI in test [7], in test [8], in test [9] and in test [10] was over 100 µM each time.
Consider `CC(=O)OCC1OC(N2C(=O)/C(=C\c3ccc(Cl)cc3)C(N)=Nc3ccccc32)C(OC(C)=O)C(OC(C)=O)C1OC(C)=O` (centres undefined), for which the TGI in test [1] was 39.2 µM; in test [2] it was 37.4 µM; in [3], over 100 µM; in test [4], over 100 µM; in [5], over 100 µM; in test [6] it was 66.6 µM. Also, the TGI in test [7] is 71.2 µM; in [8], 70.2 µM; in [9], 32.6 µM; in test [10], 45.7 µM.
As for `COc1ncc(C=C(C#N)C#N)c(OC)n1`, the TGI was over 100 µM in [1]; 40.9 µM in test [2]; over 100 µM in [3]; 74.8 µM in test [4]; over 100 µM in test [5]; 57.8 µM in test [6]. Moreover, the TGI in test [7], in test [8], in test [9] and in test [10] was over 100 µM throughout.
Regarding `Clc1nc(Cl)nc(NC23CC4CC(CC(C4)C2)C3)n1`, the TGI in test [1] was 26.9 µM; in test [2], 33.6 µM; in test [3] it was 21.7 µM; in test [4] it was 35.2 µM; in test [5], 40.3 µM; in [6] it was 42.3 µM. Besides, the TGI is 36.8 µM in [7], 37.9 µM in test [8], 37.7 µM in [9] and over 57.7 µM in test [10].
Consider `COc1ccc(Nc2[nH]c(C(C)=O)c(N)c2C(=S)Nc2ccccc2)cc1`, for which the TGI in [1] is over 100 µM; in [2] it was 69.3 µM; in test [3] it was over 100 µM; in test [4], over 100 µM; in test [5], over 100 µM; in [6], over 100 µM. Also, the TGI in test [7], in test [8], in test [9] and in test [10] was over 100 µM in each case.
